# Where a name gives a salt, the structure may show the parent alone. ± gives the standard deviation of the averaged measurements.
# Assays:
# [1] = test system: Homo sapiens (human subject panel, olfactory perception); assay: perceived odor pleasantness rating (rating 0-100); higher = more pleasant
# Method in brief: (§1)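 Fifty-five healthy human subjects aged 18–50 took part, and the six lowest performers were excluded. Each molecule was diluted in paraffin oil at high and low concentrations, and 1 mL was sniffed in randomized order over ten visits of 100 stimuli each. Subjects who reported smelling a stimulus rated it on a computerized slider that started at 50 and had to be moved, with positions converted to a 0–100 scale. The familiarity, intensity and pleasantness values are averages across subjects.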
# [2] = test system: Homo sapiens (human subject panel, olfactory perception); assay: perceived odor familiarity rating (rating 0-100); higher = more familiar
# Method in brief: as §1
# [3] = test system: Homo sapiens (human subject panel, olfactory perception); assay: perceived odor intensity rating (rating 0-100); higher = stronger perceived smell
# Method in brief: as §1
# [4] = odor dilution in paraffin oil: 1/1,000
# [5] = odor dilution in paraffin oil: 1/100,000
# [6] = odor dilution in paraffin oil: 1/10
# [7] = odor dilution in paraffin oil: 1/10,000,000
Compound,"perceived odor pleasantness rating [1, 4]","perceived odor pleasantness rating [1, 5]","perceived odor familiarity rating [2, 4]","perceived odor familiarity rating [2, 5]","perceived odor intensity rating [3, 4]","perceived odor intensity rating [3, 5]","perceived odor pleasantness rating [1, 6]","perceived odor familiarity rating [2, 6]","perceived odor intensity rating [3, 6]","perceived odor pleasantness rating [1, 7]","perceived odor familiarity rating [2, 7]","perceived odor intensity rating [3, 7]"
C[C@@]12C=CC[C@H]1[C@@H]1CCC3=CC(=O)CC[C@]3(C)[C@H]1CC2 [Androstadienone],29.2 ± 24,38.6 ± 27,45.8 ± 34,31.6 ± 30,63.1 ± 32,38.2 ± 35,–,–,–,–,–,–
COc1ccc(COC(C)=O)cc1 [Anisyl acetate],69.8 ± 21,48.7 ± 25,52.8 ± 29,39.3 ± 30,59.4 ± 26,31.7 ± 26,–,–,–,–,–,–
N[C@@H](CC(=O)O)C(=O)O [Aspartic Acid],35 ± 23,–,40 ± 30,–,29.7 ± 30,–,32.1 ± 28,46.6 ± 32,63.6 ± 27,–,–,–
COC(OC)c1ccccc1 [Benzaldehyde dimethyl acetal],35 ± 24,49.9 ± 24,41.5 ± 31,38.7 ± 29,68.6 ± 24,29.2 ± 25,–,–,–,–,–,–
CC1COC(c2ccccc2)O1 (configuration not stated) [Benzaldehyde propylene glycol acetal],45.5 ± 23,47.2 ± 22,36.3 ± 27,34.2 ± 22,50.5 ± 29,28.8 ± 32,–,–,–,–,–,–
c1ccccc1 [Benzene],51.7 ± 20,39.4 ± 22,26.1 ± 24,27.4 ± 25,11.2 ± 14,19.8 ± 26,–,–,–,–,–,–
Sc1ccccc1 [Benzenethiol],–,24.6 ± 23,–,45.1 ± 30,–,63.4 ± 34,–,–,–,41.9 ± 24,31.3 ± 28,13 ± 22
O=C(O)c1ccccc1 [Benzoic acid],34.9 ± 22,55.5 ± 25,34.4 ± 25,38.7 ± 30,30.3 ± 27,20.2 ± 24,–,–,–,–,–,–
O=C(OCc1ccccc1)c1ccccc1 [Benzyl benzoate],48.6 ± 21,–,42.4 ± 31,–,19.8 ± 24,–,46.9 ± 24,38.5 ± 26,53.3 ± 30,–,–,–
c1ccc(CSSCc2ccccc2)cc1 [Benzyl disulfide],26.8 ± 22,–,49.1 ± 32,–,63.6 ± 27,–,24.2 ± 25,48.2 ± 34,81.2 ± 20,–,–,–
c1ccc(COCc2ccccc2)cc1 [Benzyl ether],49.2 ± 23,–,31 ± 26,–,25.2 ± 26,–,67.8 ± 27,63.8 ± 32,75.7 ± 24,–,–,–
S=C=NCc1ccccc1 [Benzyl isothiocyanate],15.1 ± 19,29 ± 23,40.9 ± 32,43.4 ± 26,80.9 ± 20,55 ± 30,–,–,–,–,–,–
O=C(Cc1ccccc1)OCc1ccccc1 [Benzyl phenylacetate],31 ± 26,47 ± 20,49.8 ± 32,37.3 ± 31,54.4 ± 30,37.4 ± 35,–,–,–,–,–,–
CCC(=O)OCc1ccccc1 [Benzyl propionate],67.2 ± 23,44 ± 28,50.7 ± 32,34.5 ± 24,53 ± 30,30 ± 32,–,–,–,–,–,–
O=C(OCc1ccccc1)c1ccccc1O [Benzyl salicylate],53.6 ± 24,–,38 ± 28,–,28.4 ± 28,–,57.6 ± 23,40.7 ± 29,48.6 ± 30,–,–,–
c1ccc(-c2ccccc2)cc1 [Biphenyl],51.4 ± 21,–,36.2 ± 28,–,31.7 ± 26,–,31.3 ± 24,42.5 ± 33,77.6 ± 20,–,–,–
CSCSC [Bis(methylthio)methane],–,25.1 ± 25,–,50.3 ± 34,–,78.7 ± 22,–,–,–,45.4 ± 25,38.9 ± 31,33.8 ± 26
CC(=O)OC1CC2CCC1(C)C2(C)C (configuration not stated) [Bornyl acetate],45.2 ± 22,45.7 ± 24,44.2 ± 29,28.9 ± 26,36.1 ± 30,29.9 ± 28,–,–,–,–,–,–

Compound,"perceived odor pleasantness rating [1, 4]","perceived odor pleasantness rating [1, 5]","perceived odor familiarity rating [2, 4]","perceived odor familiarity rating [2, 5]","perceived odor intensity rating [3, 4]","perceived odor intensity rating [3, 5]","perceived odor pleasantness rating [1, 6]","perceived odor familiarity rating [2, 6]","perceived odor intensity rating [3, 6]","perceived odor pleasantness rating [1, 7]","perceived odor familiarity rating [2, 7]","perceived odor intensity rating [3, 7]"
C=CCCCCCCCCC(=O)OCCCC [Butyl 10-undecenoate],42.2 ± 19,–,44.4 ± 32,–,31.9 ± 33,–,35.1 ± 27,50 ± 30,58.1 ± 30,–,–,–
CCCCOC(=O)[C@H](C)O [Butyl (S)-(-)-lactate],50.2 ± 28,48.8 ± 23,50.4 ± 32,39.5 ± 25,55.5 ± 29,33.6 ± 34,–,–,–,–,–,–
CCCCOC(=O)CC [Butyl Propionate],54.6 ± 26,46.5 ± 25,50.6 ± 30,31.9 ± 33,62 ± 25,18 ± 25,–,–,–,–,–,–
CCCCOC=O [Butyl formate],45.4 ± 28,44.1 ± 28,49.7 ± 29,29.1 ± 29,51.8 ± 32,8.38 ± 15,–,–,–,–,–,–
CCCCOC(=O)Cc1ccccc1 [Butyl phenylacetate],47.2 ± 28,45.9 ± 22,51.6 ± 30,41.3 ± 32,53.1 ± 31,24.8 ± 25,–,–,–,–,–,–
CCCCN [Butylamine],–,50.8 ± 27,–,36 ± 29,–,16.3 ± 22,–,–,–,44.4 ± 25,32.7 ± 27,21.8 ± 24
Cc1cc(C(C)(C)C)c(O)c(C(C)(C)C)c1 [Butylated hydroxytoluene],51.4 ± 22,–,27.7 ± 29,–,16.9 ± 24,–,51.9 ± 24,43.4 ± 29,40.3 ± 31,–,–,–
CC12CCC(CC1=O)C2(C)C (configuration not stated) [Camphor],49.5 ± 25,53.1 ± 22,54.4 ± 30,31.3 ± 29,57.4 ± 30,17.3 ± 20,–,–,–,–,–,–
Cc1ccc(C(C)C)cc1O [Carvacrol],48 ± 28,53.2 ± 24,62.7 ± 31,58.8 ± 32,74.1 ± 20,50.4 ± 26,–,–,–,–,–,–
OC/C=C/c1ccccc1 [Cinnamyl alcohol],–,32,–,52,–,6,–,–,–,–,–,–
O=C(O)CC(O)(CC(=O)O)C(=O)O [Citric acid],46.7 ± 28,–,28.5 ± 31,–,14.7 ± 22,–,51.7 ± 26,33.9 ± 30,27.4 ± 28,–,–,–
O=C1CCCCCC1 [Cycloheptanone],40.8 ± 28,55 ± 19,52.7 ± 30,35.8 ± 30,69 ± 28,26.4 ± 28,–,–,–,–,–,–
C1CCCCC1 [Cyclohexane],40.5 ± 24,–,51.6 ± 32,–,49 ± 34,–,48.2 ± 27,55.1 ± 29,57.4 ± 34,–,–,–
O=C(O)CC1CCCCC1 [Cyclohexaneacetic acid],28.8 ± 22,37.6 ± 23,46.9 ± 28,32.8 ± 25,69.9 ± 22,29.4 ± 30,–,–,–,–,–,–
O=C1CCCCC1 [Cyclohexanone (replicate)],46 ± 27,55.4 ± 24,51.6 ± 30,28.4 ± 28,66.5 ± 26,20.8 ± 29,–,–,–,–,–,–
O=C1CCCCC1 [Cyclohexanone],38 ± 27,47.9 ± 23,52.5 ± 28,26.7 ± 25,69.9 ± 22,19.6 ± 27,–,–,–,–,–,–
SC1CCCC1 [Cyclopentanethiol],–,16.5 ± 22,–,55.4 ± 34,–,92.4 ± 10,–,–,–,24 ± 23,57.8 ± 33,78.1 ± 21

# — the supplement of paper PMC4977894
